Source: patent US8859818B2, “Electrophotographic photoreceptor” (Takasago International Corporation, priority 2010, dated 2014)

Assays:
[1] = solubility in tetrahydrofuran; format: physicochemical; conditions: 25° C., weight dissolved completely in 1 g tetrahydrofuran
Description: Each of the Exemplified Compounds (1-1) and (1-2) was dissolved in 1 g of tetrahydrofuran at 25° C.
Experiments were conducted by using Comparative Compounds (3) to (5) in the same manner as in Example 8.

[2] = dissolution in binder polymer solution for film formation; format: physicochemical
Description: Into 85 parts by weight of tetrahydrofuran, 15 parts by weight of “Panlite TS-2020” (manufactured by Teijin Chemicals Ltd.) and 15 parts by weight of Compound (1-1) were dissolved by mixing. The solution was applied by using a doctor blade onto a sheet in which aluminum was vapor deposited on a polyethylene […] (PET) film, followed by drying at 80° C. for 3 hours. Thus, a charge transport layer was formed (thickness: 18 μm). Further, a translucent gold electrode was vapor deposited on this charge transport layer, and the charge carrier mobility was measured. For the measurement of the carrier mobility, a nitrogen gas laser having a pulse half width of […] and a wavelength of 337 nm was used as a light source, and the time-of-flight method (Toshiaki Tanaka, Yasuhiro Yamaguchi and Masaaki Yokoyama, Denshi Shashin (Electrophotography), 29, 366 (1990)) was employed. Table 1 and FIG. 1 show the results measured at 25° C. and 25 V/μm.
Experiments were conducted by using Comparative Compounds (1) to (6) in the same manner as in Example 1. […] Note that it was impossible to measure the mobility of Comparative Compounds (3) to (5) because of their insolubility.
Into 8 parts by weight of tetrahydrofuran, 1 part by weight of a polycarbonate “Z-200” (manufactured by Mitsubishi Engineering-Plastics Corporation) and 1 part by weight of Compound (1-1) or (1-2) were dissolved by mixing. The liquid was applied onto the charge generation layer, followed by drying at 80° C. for 2 hours, to thereby form a charge transport layer (thickness: approximately 20 μm). Thus, each electrophotographic photoreceptor was prepared.
Experiments were conducted by using Comparative Compounds (2) to (6) in the same manner as in Example 4. […] Note that it was impossible to measure the electrophotographic characteristics of Comparative Compounds (3) to (5) because of their insolubility.
Into 85 parts by weight of tetrahydrofuran, 15 parts by weight of “Panlite TS-2020” and 15 parts by weight of Compound (1-1) or (1-2) were dissolved by mixing. This liquid was applied onto a PET plate by using a doctor blade, followed by drying at 80° C. for 3 hours. Thus, a thin film was prepared (thickness: approximately 20 μm).
Experiments were conducted by using Comparative Compounds (3) to (5) in the same manner as in Example 6. […] Note that it was impossible to perform measurement of Comparative Compounds (3) to (5) because of their insolubility.

[3] = 1 part polycarbonate Z-200, 1 part compound, 8 parts tetrahydrofuran
[4] = 15 parts Panlite TS-2020, 15 parts compound, 85 parts tetrahydrofuran

| SMILES | Solubility [1] | dissolution in binder polymer solution [2, 3] | dissolution in binder polymer solution [2, 4] | melting point |
| --- | --- | --- | --- | --- |
| Cc1ccc(/C=C/c2ccc(N(c3ccc(/C=C/c4ccc(C)cc4)cc3)c3ccc(/C=C/c4ccc(C)cc4)cc3)cc2)cc1 [Comparative Compound (3)] | 0.08 g/g tetrahydrofuran | not successfully dissolved | not successfully dissolved | – |
| COc1ccc(/C=C/c2ccc(N(c3ccc(/C=C/c4ccc(OC)cc4)cc3)c3ccc(/C=C/c4ccc(OC)cc4)cc3)cc2)cc1 [Comparative Compound (5)] | 0.10 g/g tetrahydrofuran | not successfully dissolved | not successfully dissolved | – |
| COc1cccc(C=Cc2ccc(N(c3ccc(C=Cc4cccc(OC)c4)cc3)c3ccc(C=Cc4cccc(OC)c4)cc3)cc2)c1 [Compound (1-2)] | 0.45 g/g tetrahydrofuran | – | – | 145 to 146 °C |

Next, values leading:

| Solubility [1] | dissolution in binder polymer solution [2, 3] | dissolution in binder polymer solution [2, 4] | melting point | SMILES |
| --- | --- | --- | --- | --- |
| 0.02 g/g tetrahydrofuran | not successfully dissolved | not successfully dissolved | – | Cc1ccccc1/C=C/c1ccc(N(c2ccc(/C=C/c3ccccc3C)cc2)c2ccc(/C=C/c3ccccc3C)cc2)cc1 [Comparative Compound (4)] |
| 0.40 g/g tetrahydrofuran | – | – | 98 to 99 °C | Cc1cccc(C=Cc2ccc(N(c3ccc(C=Cc4cccc(C)c4)cc3)c3ccc(C=Cc4cccc(C)c4)cc3)cc2)c1 [Compound (1-1)] |
